Active and inactive are the calls of the source.
Tests used:
[1] = biological target: T1, Polyadenylate-binding protein 1 (Homo sapiens, UniProt P11940); experiment: MLLE domain peptide-binding blockers, IC50 – biochemical, fluorescence polarization, FITC-PAM2 peptide, dose response (AID 602259); assay type: functional; conditions: read-out: IC50_Mean
[2] = biological target: T1, Polyadenylate-binding protein 1; experiment: MLLE binding blockers, Cy5 peptide tracer – biochemical, fluorescence polarization, Cy5-PAM2 peptide, secondary, miRNA deadenylation inhibitor project, dose response (AID 602260); assay type: functional; conditions: read-out: IC50_Mean
Protein RecA = biological target: T2, Protein RecA (Mycobacterium tuberculosis, UniProt P9WHJ3); experiment: Fluorescence Cell-Free Homogeneous Dose Retest to Identify Inhibitors of RecA-Intein Splicing Activity. [Related pubchem assays (depositor defined):AID2097, AID2223, AID489010, AID492950]; assay type: functional
T2 sequence (P9WHJ3 whole entry): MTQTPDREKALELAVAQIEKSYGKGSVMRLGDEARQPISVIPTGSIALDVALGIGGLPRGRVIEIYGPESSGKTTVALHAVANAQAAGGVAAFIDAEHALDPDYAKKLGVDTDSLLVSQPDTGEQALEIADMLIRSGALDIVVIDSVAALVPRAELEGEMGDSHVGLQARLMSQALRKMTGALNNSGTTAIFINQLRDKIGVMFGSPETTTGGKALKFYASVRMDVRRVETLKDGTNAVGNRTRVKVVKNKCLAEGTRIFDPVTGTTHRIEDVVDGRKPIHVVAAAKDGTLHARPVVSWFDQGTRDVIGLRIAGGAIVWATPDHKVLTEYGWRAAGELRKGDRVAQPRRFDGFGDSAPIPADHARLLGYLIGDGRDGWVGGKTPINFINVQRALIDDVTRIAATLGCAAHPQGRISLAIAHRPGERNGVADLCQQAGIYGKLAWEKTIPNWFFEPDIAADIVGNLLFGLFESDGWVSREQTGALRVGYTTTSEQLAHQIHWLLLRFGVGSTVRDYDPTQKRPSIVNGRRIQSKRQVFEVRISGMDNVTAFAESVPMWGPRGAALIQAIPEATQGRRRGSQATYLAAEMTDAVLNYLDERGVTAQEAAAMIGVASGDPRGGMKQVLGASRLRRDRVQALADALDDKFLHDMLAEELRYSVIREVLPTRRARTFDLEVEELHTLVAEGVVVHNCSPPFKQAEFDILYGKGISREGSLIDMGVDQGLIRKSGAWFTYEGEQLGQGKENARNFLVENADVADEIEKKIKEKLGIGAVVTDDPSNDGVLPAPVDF

[3] = biological target: T3, Replicative DNA helicase DnaB (Mycobacterium tuberculosis, UniProt P9WMR3); experiment: DnaB intein splicing inhibitors, dose response, biochemical, cell-free fluorescence (AID 449749); assay type: functional
T3 sequence (P9WMR3 whole entry): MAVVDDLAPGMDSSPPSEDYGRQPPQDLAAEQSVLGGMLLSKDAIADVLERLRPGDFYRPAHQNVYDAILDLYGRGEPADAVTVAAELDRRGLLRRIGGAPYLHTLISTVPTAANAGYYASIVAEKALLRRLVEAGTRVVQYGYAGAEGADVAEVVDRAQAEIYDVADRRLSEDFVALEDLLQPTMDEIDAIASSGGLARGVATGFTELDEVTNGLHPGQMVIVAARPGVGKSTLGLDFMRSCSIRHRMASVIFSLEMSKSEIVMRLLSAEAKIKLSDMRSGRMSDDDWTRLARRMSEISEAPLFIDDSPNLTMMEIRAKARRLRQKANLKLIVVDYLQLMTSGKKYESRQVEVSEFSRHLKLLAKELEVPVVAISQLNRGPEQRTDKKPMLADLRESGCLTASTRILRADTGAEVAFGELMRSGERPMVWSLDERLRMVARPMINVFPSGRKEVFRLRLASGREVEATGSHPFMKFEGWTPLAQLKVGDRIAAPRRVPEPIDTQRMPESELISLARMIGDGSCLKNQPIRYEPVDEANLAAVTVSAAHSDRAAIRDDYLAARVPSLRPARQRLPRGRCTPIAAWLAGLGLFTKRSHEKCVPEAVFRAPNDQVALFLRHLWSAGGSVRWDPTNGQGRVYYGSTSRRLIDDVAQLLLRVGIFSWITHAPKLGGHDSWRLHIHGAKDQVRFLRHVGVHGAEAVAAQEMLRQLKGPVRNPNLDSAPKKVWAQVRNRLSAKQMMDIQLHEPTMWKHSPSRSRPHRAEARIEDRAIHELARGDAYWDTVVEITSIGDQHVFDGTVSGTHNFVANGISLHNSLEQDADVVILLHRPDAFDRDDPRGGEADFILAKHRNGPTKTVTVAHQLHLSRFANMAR

[4] = Luminescence Cell-Based Dose Retest to Confirm Inhibitors of Cancer Stem Cells. [Related pubchem assays (depositor defined):AID2717, AID2721]; assay type: functional; conditions: Homo sapiens
[5] = viability of PTEN-deleted HCT116 cells – cell-based, HCT116 PTEN knockout, dose response (AID 1047); assay type: functional;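 further: HCT116 colon tumor cells with PTEN knocked out; cells exposed to compound for 60 hours before readout; potency for loss of cell viability measured by luminescence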
[6] = viability of HCT116 lacking mutant beta-catenin – cell-based, human colon tumor, dose response (AID 1045); assay type: functional;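 further: HCT116 colon tumor cells with beta catenin knocked out; cells exposed to compound for 60 hours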
[7] = system: Streptococcus sp. 'group A'; experiment: Streptococcus pyogenes SK(-)GAS viability under kanamycin – luminescence, BacTiterGlo, confirmation, counter-screen for streptokinase expression inhibitor project, dose response (AID 1900); assay type: functional, organism-based
Streptococcus = experiment: GAS UMAA2166 growth inhibition – luminescence, BacTiterGlo, counter-screen for streptokinase expression inhibitor project, dose response (AID 1915); assay type: functional, organism-based;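 further: potency for reduction of bacterial viability or growth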
[8] = biological target: T4, Heat shock factor protein 1 (Mus musculus, UniProt P38532); experiment: decrease of HSF1-responsive luciferase luminescence – cell-based, NIH3T3, dose retest, confirmation (AID 2382); assay type: functional;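 further: NIH3T3 fibroblasts with HSF1-driven luciferase reporter stressed by proteasome inhibitor MG132; luminescence from HSF1-driven luciferase expression after 8 hours of MG132 stress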
T4 sequence (P38532 whole entry): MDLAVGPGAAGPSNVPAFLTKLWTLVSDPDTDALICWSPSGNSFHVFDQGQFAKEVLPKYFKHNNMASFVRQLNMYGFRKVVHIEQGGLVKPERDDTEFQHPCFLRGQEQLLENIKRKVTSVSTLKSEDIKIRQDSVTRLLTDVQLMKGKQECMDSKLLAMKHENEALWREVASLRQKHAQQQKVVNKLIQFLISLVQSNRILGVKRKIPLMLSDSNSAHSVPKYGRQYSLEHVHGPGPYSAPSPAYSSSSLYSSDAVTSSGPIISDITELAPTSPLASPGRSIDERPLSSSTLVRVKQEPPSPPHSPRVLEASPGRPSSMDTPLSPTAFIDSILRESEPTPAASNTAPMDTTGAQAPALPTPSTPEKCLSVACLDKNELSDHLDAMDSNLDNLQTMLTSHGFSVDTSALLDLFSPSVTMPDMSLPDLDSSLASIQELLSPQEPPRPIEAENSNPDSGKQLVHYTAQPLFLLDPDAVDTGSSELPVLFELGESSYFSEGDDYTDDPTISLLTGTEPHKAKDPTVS

[9] = biological target: T5, RNA-binding protein pos-1 (Caenorhabditis elegans, UniProt G5EF15); experiment: disruptors of C. elegans POS-1 RNA interaction – biochemical, fluorescence polarization, dose response (AID 1964);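 further: purified POS-1 fused to maltose binding protein made in E. coli; potency of compounds blocking POS-1 binding to fluorescent RNA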
T5 sequence (G5EF15 whole entry): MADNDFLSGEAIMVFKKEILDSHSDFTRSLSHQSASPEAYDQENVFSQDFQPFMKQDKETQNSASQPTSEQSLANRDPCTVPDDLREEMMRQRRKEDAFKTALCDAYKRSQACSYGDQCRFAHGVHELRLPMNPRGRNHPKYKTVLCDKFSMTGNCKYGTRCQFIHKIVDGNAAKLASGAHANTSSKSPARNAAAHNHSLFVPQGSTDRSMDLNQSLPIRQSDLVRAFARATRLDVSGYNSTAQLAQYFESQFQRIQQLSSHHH

[10] = biological target: T6, Zinc finger protein mex-5 (Caenorhabditis elegans, UniProt Q9XUB2); experiment: potency of MEX-5 RNA-binding blockers – biochemical, C. elegans, fluorescence polarization, dose response (AID 1960)
T6 sequence (Q9XUB2 whole entry): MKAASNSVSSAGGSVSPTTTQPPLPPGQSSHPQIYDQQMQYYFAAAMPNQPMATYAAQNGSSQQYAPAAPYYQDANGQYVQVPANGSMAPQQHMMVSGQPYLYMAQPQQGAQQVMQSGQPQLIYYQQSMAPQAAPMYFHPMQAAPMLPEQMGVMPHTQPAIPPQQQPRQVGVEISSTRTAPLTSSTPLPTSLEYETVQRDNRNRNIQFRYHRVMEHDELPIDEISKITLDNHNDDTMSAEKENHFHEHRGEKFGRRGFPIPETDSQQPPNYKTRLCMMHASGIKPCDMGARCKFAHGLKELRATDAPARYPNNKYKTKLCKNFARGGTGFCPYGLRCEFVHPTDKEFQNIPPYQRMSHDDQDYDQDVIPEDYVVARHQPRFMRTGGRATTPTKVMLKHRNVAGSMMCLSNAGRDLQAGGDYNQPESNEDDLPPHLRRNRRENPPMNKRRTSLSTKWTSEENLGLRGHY

T1 sequence (P11940 whole entry, the tested form may be a part): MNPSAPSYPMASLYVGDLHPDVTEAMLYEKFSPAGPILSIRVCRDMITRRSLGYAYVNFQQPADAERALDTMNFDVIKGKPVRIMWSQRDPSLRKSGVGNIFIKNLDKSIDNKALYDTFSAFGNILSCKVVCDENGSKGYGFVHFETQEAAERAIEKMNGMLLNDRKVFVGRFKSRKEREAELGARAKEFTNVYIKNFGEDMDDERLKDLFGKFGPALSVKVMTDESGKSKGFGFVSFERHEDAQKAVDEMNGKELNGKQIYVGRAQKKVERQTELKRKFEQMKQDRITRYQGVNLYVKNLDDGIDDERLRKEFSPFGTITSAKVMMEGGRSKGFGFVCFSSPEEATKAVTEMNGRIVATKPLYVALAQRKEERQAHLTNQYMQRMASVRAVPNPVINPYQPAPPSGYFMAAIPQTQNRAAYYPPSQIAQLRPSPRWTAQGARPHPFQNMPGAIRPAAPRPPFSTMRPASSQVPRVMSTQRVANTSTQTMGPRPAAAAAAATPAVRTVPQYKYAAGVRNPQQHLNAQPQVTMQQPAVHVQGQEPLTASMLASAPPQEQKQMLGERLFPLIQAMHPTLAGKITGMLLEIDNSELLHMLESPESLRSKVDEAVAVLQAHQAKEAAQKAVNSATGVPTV

SMILES	IC50 [1]	IC50 [2]	AC50 [4]	further results
Cc1nc(NS(=O)(=O)c2ccccc2)sc1NC(=O)OC(C)C	> 66 µM (inactive)	> 66 µM (inactive)		
CC1(C)CC2=C(CO1)C(S)=NC(c1ccccc1)N2CC1CCCO1 (stereo not drawn)	> 66 µM (inactive)	> 66 µM (inactive)		
N#CC1=C(N)Oc2[nH]nc(-c3cccs3)c2C1c1cccs1 (stereo not drawn)				EC50 (Protein RecA): 2.02 µM (active); AC50 [3]: 2.63 µM (active)
Cn1c(=O)c2c(O)cc(N)nc2n(C)c1=O	56.2 µM (inactive)	> 66 µM (inactive)		
CCCCOc1ccc(C(=O)Nc2ccc3c(c2)OCO3)cc1			1.46 µM (active)	
COCCOC(=O)C1=C(C)N=C2SCCC(=O)N2C1c1ccc(OC(=O)c2ccco2)cc1 (stereo not drawn)				EC50 (Protein RecA): 14 µM (active); AC50 [3]: 19.8 µM (active)
CC(=O)Oc1ccc(C2=NN(c3ccccc3)C(c3ccccc3)C2)cc1 (stereo not drawn)			2.63 µM (active)	
CC(=O)Nc1ccc(S(=O)(=O)NCC(=O)N2CCN(S(=O)(=O)c3cccs3)CC2)cc1	> 66 µM (inactive)	> 66 µM (inactive)		
Cc1ccc(Nc2cc(C)c3ccc(O)cc3n2)cc1C			4.45 µM (active)	
Cc1ccc(CN2CCSc3ccc(C(=O)NCc4ccco4)cc32)cc1			12.1 µM (active)	
O=[N+]([O-])c1ccc(COc2ccc(-c3[nH]ncc3-c3ccccc3)c(O)c2)cc1			4.73 µM (active)	
Cn1c(=O)c(C(=O)NNC(=O)c2ccc(Br)cc2)c(O)c2ccccc21			3.03 µM (active)	
O=C(Nc1ccc(Cl)cc1)C1c2cccc[n+]2CC(=O)N1Cc1ccc2c(c1)OCO2 (stereo not drawn)				EC50 (Protein RecA): 13.3 µM (active); AC50 [3]: > 380 µM (inactive)
Cc1cccc(-n2ncc3c(N4CCCc5ccccc54)ncnc32)c1			7.31 µM (active)	
COc1cc(NC(S)=Nc2ccc(N(C)C(C)=O)cc2)cc(OC)c1	> 66 µM (inactive)	> 66 µM (inactive)		
CC1=NN(c2ccccc2)C(=O)/C1=C\c1c[nH]nc1-c1ccccc1				EC50 (Protein RecA): 2.54 µM (active); AC50 [3]: 4.1 µM (active)

SMILES	IC50 [1]	IC50 [2]	AC50 [4]	further results
COc1ccc(-c2c(=O)n(OC)c3ccccc3[n+]2[O-])cc1OC				EC50 (Protein RecA): > 380 µM (inactive); AC50 [3]: > 380 µM (inactive)
COc1ccc(C2c3c(ncn(Cc4ccco4)c3=N)Oc3ccc4ccccc4c32)cc1 (stereo not drawn)			4.48 µM (active)	EC50 [5]: 9.97 µM (active); EC50 [6]: 8.89 µM (active)
COc1ccc(OCCCC(=O)OCC(=O)Nc2ncc(Cl)cc2Cl)cc1	30.3 µM (inactive)	> 66 µM (inactive)		
C=C(C)COc1ccc(-c2[nH]nc(C)c2-c2ccc(Br)cc2)c(O)c1			0.692 µM (active)	EC50 [7]: 2.99 µM (active); EC50 (Streptococcus): 4.72 µM (active)
COCc1n[nH]c2c1C1(CCSCC1)C(C#N)=C(N)O2				EC50 (Protein RecA): 2.26 µM (active); AC50 [3]: 18.5 µM (active); EC50 [8]: > 195 µM (not active)
CCCCC1OC23CCCCC2C(C#N)(C(=N)O3)C1(C#N)C#N (stereo not drawn)	> 66 µM (inactive)	> 66 µM (inactive)		
Cc1[nH]nc2c1C1(CCC(c3ccccc3)CC1)C(C#N)=C(N)O2 (stereo not drawn)				EC50 (Protein RecA): 1.51 µM (active); AC50 [3]: 5.82 µM (active)
COc1cc(C2C(C#N)=C(N)Oc3c2c(-c2ccccc2)nn3-c2ccccc2)cc(OC)c1OC (stereo not drawn)				EC50 (Protein RecA): 27.9 µM (active); AC50 [3]: 26.8 µM (active)
CN(C)C(=O)/C(C#N)=C\c1cc(Br)c(Sc2ccc(Cl)cc2)o1			4.82 µM (active)	
COc1ccc(C(=O)NC(=S)NC2CCSC2=O)cc1 (stereo not drawn)	> 66 µM (inactive)	> 66 µM (inactive)		
COc1ccc(NC(=O)C2Cc3ccccc3CN2C(=O)c2ccccc2)cn1 (stereo not drawn)	13.1 µM (active)	> 66 µM (inactive)		EC50 [9]: 25.1 µM (active); EC50 [10]: > 300 µM (inconclusive)
CCCn1c(=C(C#N)C#N)s/c(=C2\C=Cc3ccccc3N2CC)c1=O	> 66 µM (inactive)	> 66 µM (inactive)		
C#CCOCCOCCOCCNc1nc(N2CCN(C(=O)CCCCCCCCCCNC(=O)Cn3cc(C[C@@H](C)O)nn3)CC2)nc(N2CCN(C(=O)CCCCCCCCCCNC(=O)[C@@H]([C@H](C)O)n3cc(C)nn3)CC2)n1			4.67 µM (active)	
Cc1[nH]n(-c2ccc([N+](=O)[O-])cc2)c(=O)c1/C=N/CCN1CCN(C(=O)C(C)C)CC1			4.61 µM (active)	EC50 [8]: > 195 µM (not active)
S=C(c1ccc(Cl)cc1)N1CCOCC1 [(4-CHLOROPHENYL)(MORPHOLINO)METHANETHIONE]	> 66 µM (inactive)	> 66 µM (inactive)		
